Patent publication US20180020708A1, “GLUCOSYRINGIC ACID ANALOGS AS SWEETNESS PROFILE MODIFIERS” (PepsiCo, Inc., priority 2016, published 2018)

What was measured:
human tasting = assay: Human tasting of GSA with high potency sweeteners such as rebaudioside A; format: in vivo; details: pure form
tasters = assay: Human tasting of sweet/flavor modifying ingredient in HFCS solution versus HFCS control; format: in vivo
Method: For testing the material as a sweet/flavor modifying ingredient, two samples were prepared: a 4° Brix high-fructose corn syrup (HFCS) control solution and a 4° Brix HFCS solution with a known concentration of test ingredient.
4° Brix HFCS control solution was prepared by adding 50.89 grams of 78.60° Brix HFCS to 1000 g phosphoric acid base which was prepared by adding phosphoric acid dropwise into 1 L of Aquafina Water until pH 3.1 was obtained. pH was measured using a METTLER TOLEDO pH meter.
If any cloudiness persisted, the sample solution was passed through a paper filter. For some low soluble compounds, Branson 2800 Ultra Sonic Bath was used to dissolve the material. Solubility was confirmed by shining a laser pointer through the solution. If no diffraction was observed then it was assumed that the material was soluble.
For each test, 12-16 tasters were presented with these two (2) numbered samples and asked to note the sweet quality differences between the two samples. Tasters were also asked to comment on sweetness onset, sweetness linger, overall sugarlike sweetness and other qualities such as bitter taste, metallic note, astringency, cooling sensation, any offnotes and any associated flavors. Tasters were also asked to assess sample odor differences and provide any descriptions.
Tasters were asked to not to eat at least 1 hour before tasting and rinse with Aquafina water at least 5 times between tasting all samples.
Compound 5 was added at 35 ppm to 4 Brix HFCS in phosphoric acid (as described above). This solution was compared with 4 Brix HFCS in phosphoric acid.

[1] = 35 ppm in 4 Brix HFCS in phosphoric acid (pH 3.1) vs 4 Brix HFCS control

## COc1cc(C(=O)O)cc(OC)c1O[C@@H]1O[C@H](CO)[C@@H](O)[C@H](O)[C@H]1O [Compound 5, Syringic acid 4-O-β-D-glucoside]
Human tasting; e.g. 300 ppm solution of Rebaudioside A in phosphate buffer
  bitter, metallic and licorice off-notes of high potency sweeteners: decreasing bitter, metallic and licorice off-notes
Human tasting; high potency sweeteners such as rebaudioside A
  sweetness time-of-onset for high potency sweeteners: decreasing the sweetness time-of-onset
tasters; [1]
  overall sugarlike sweetness reported by tasters: more sugar-like
  sweetness onset reported by tasters: earlier onset
tasters; 35 ppm in 4 Brix HFCS in phosphoric acid (pH 3.1) vs 4 Brix HFCS control, majority of 12-16 tasters noted a difference
  sweet quality difference reported by tasters: rounder sweetness
tasters; pure form, human tasting, nutritive sweetener e.g. high-fructose corn syrup (HFCS)
  overall sweetness of nutritive sweetener sweetened beverages: effective in increasing the overall sweetness
tasters; pure form, human tasting, sweetened beverages
  sweet quality of sweetened beverages: improving the sweet quality
